Legend:
[1] = tested on: Silverleaf Whitefly (Bemisia argentifolii); assay: Activity against silverleaf whitefly, cotton cotyledon dip; format: in vivo; details: 72 h, cotyledons dipped, adults, 3 days after treatment
Method: (§1) The active compounds were formulated in 50:50 acetone:water and 100 ppm Kinetic™ surfactant.
Selected cotton plants were grown to the cotyledon state (one plant per pot). The cotyledons were dipped into the test solution to provide complete coverage of the foliage and placed in a well-vented area to dry. Each pot with treated seedling was placed in a plastic cup and 10 to 12 whitefly adults (approximately 3-5 day old) were introduced. The insects were collected using an aspirator and an 0.6 cm, non-toxic Tygon™ tubing (R-3603) connected to a barrier pipette tip. The tip, containing the collected insects, was then gently inserted into the soil containing the treated plant, allowing insects to crawl out of the tip to reach the foliage for feeding. The cups were covered with a reusable screened lid (150 micron mesh polyester screen PeCap from Tetko Inc). Test plants were maintained in the holding room at about 25° C. and 20-40% relative humidity for 3 days avoiding direct exposure to the fluorescent light (24 hour photoperiod) to prevent trapping of heat inside the cup. Mortality was assessed 3 days after treatment of the plants.

[2] = tested on: Tobacco Budworm (Heliothis virescens); assay: whole plant or invertebrate; details: 144 h
[3] = tested on: Yellowfever Mosquito (Aedes aegyptii) Larvae; assay: Activity against mosquito larvae via water treatment; format: in vivo; details: 10 ppm, water treatment, 4th-instar larvae, read-out: mortality of yellowfever mosquito
Method: 11. Activity Against Yellowfever Mosquito (Aedes aegyptii), House Mosquito (Culex quinquefasciatus) and Malaria Mosquito (Anopheles albimanus) Larvae Via Water Treatment
Well plates were used as test arenas. The active ingredient was dissolved in acetone and diluted with water to obtain the concentrations needed. The final solutions containing appr. 1% acetone were placed into each well. Approximately 10 mosquito larvae (4th-instars) in 1 ml water were added to each well. Larvae were fed one drop of liver powder each day. The dishes were covered and maintained at 22° C. Mortality was recorded daily and dead larvae and live or dead pupae were removed daily. At the end of the test remaining live larvae were recorded and percent mortality was calculated.

[4] = tested on: Southern Armyworm (Spodoptera eridania), 2nd Instar Larvae; assay: whole plant or invertebrate; format: in vivo; details: in Phaseolus lunatus, foliar, 120 h, 300 ppm, leaf dipped, at 5 days, read-out: mortality
Method: The active compounds were formulated for testing the activity against insects and arachnids as a 10.000 ppm solution in a mixture of 35% acetone and water, which was diluted with water, if needed.
A Sieva lima bean leaf was dipped in the test solution and allowed to dry. The leaf was then placed in a petri dish containing a filter paper on the bottom and ten 2nd instar caterpillars. At 5 days, observations are made of mortality and reduced feeding.

[5] = tested on: Cotton Aphid (Aphis gossypii); assay: Activity against cotton aphid, cotton cotyledon dip; format: in vivo; details: 120 h, cotyledons dipped, after 5 days
Text: as §1
Cotton plants at the cotyledon stage (one plant per pot) were infested by placing a heavily infested leaf from the main colony on top of each cotyledon. The aphids were allowed to transfer to the host plant overnight, and the leaf used to transfer the aphids was removed. The cotyledons were dipped in the test solution and allowed to dry. After 5 days, mortality counts were made.

[6] = tested on: Boll Weevil (Anthonomus grandis); assay: Activity against boll weevil, eggs in microtiterplates; format: in vivo; details: eggs sprayed with 20 μl test solution, 3 to 5 days
Method: 10 to 15 eggs were placed into microtiterplates filled with 2% agar-agar in water and 300 ppm formaline. […] Mortality was assessed on the basis of the remaining unhatched eggs or larvae on the agar surface and/or quantity and depth of the digging channels caused by the hatched larvae. Tests were replicated 2 times.

[7] = tested on: Yellowfever Mosquito (Aedes aegyptii); assay: Activity via glass contact; format: in vivo
Text: 10. Activity Against Argentine Ant (Linepithema humile), Harvester Ant (Pogonomyrmex Californicus), Acrobat Ant (Crematogaster Spp.), Carpenter Ant (Camponotus floridanus), Fire Ant (Solenopsis invicta), House Fly (Musca domestica), Stable Fly (Stomoxys calcitrans), Flesh Fly (Sarcophaga sp.), Yellowfever Mosquito (Aedes aegyptii), House Mosquito (Culex quinquefasciatus), Malaria Mosquito (Anopheles albimanus), German Cockroach (Blattella Germanica), Cat Flea (Ctenocephalides felis), and Brown Dog Tick (Rhipicephalus sanguineus) Via Glass Contact
Glass vials were treated with 0.5 ml of a solution of active ingredient in acetone and allowed to dry. Insects or ticks were placed into each vial together with some food and moisture supply.

[8] = tested on: Vetch Aphid (Megoura viciae); assay: Activity against vetch aphid, bean leaf disks; format: in vivo; details: foliar, 144 h, 2500 ppm, leaf disks sprayed with 2.5 μl, 6 days, compared to 0% mortality of untreated controls, read-out: mortality
Method: Bean leaf disks were placed into microtiterplates filled with 0.8% agar-agar and 2.5 ppm OPUS™. The leaf disks were sprayed with 2.5 μl of the test solution and 5 to 8 adult aphids were placed into the microtiterplates which were then closed and kept at 22-24° C. and 35-45% under fluorescent light for 6 days. Mortality was assessed on the basis of vital, reproduced aphids. Tests were replicated 2 times.

[9] = tested on: Diamond Back Moth (Plutella xylostella); assay: Activity against diamond back moth, cabbage leaf disk dip; format: in vivo; details: foliar, 300 ppm, leaf disk dipped, third instar larvae, after 72 h, read-out: mortality
Method: The active compounds were formulated in 50:50 acetone:water and 0.1% (vol/vol) Alkamuls EL 620 surfactant. A 6 cm leaf disk of cabbage leaves was dipped in the test solution for 3 seconds and allowed to air dry in a Petri plate lined with moist filter paper. The leaf disk was inoculated with 10 third instar larvae and kept at 25-27° C. and 50-60% humidity for 3 days. Mortality was assessed after 72 h of treatment.

[10] = tested on: Oat Aphid (Rhopalosiphum padi); assay: Activity against oat aphid, barley leaf disks; format: in vivo; details: 2500 ppm; leaf disks sprayed with 2.5 μl; 5 days; compared to 0% mortality of untreated controls
Method: Barlay leaf disk were placed into microtiterplates filled with 0.8% agar-agar and 2.5 ppm OPUS™. The leaf disks were sprayed with 2.5 μl of the test solution and 3 to 8 adult aphids were placed into the microtiterplates which were then closed and kept at 22-24° C. and 35-45% humidity under fluorescent light for 5 days. Mortality was assessed on the basis of vital aphids. Tests were replicated 2 times.

Row | SMILES | mortality at 300 ppm [1] [%] | mortality at 2500 ppm [2] [%] | mortality at 10 ppm [3] [%] | mortality at 300 ppm [4] [%] | mortality at 300 ppm [5] [%] | mortality at 2500 ppm [6] [%] | mortality at 10 ppm [7] [%] | mortality at 2500 ppm [8] [%] | mortality at 300 ppm [9] [%] | mortality [10]
1 | Cc1cc(Cl)cc(C(=O)N=S(C)C)c1NC(=O)c1cc(Br)nn1-c1ncccc1Cl [I.3-4] | > 90 | > 75 | > 70 | > 75 | > 50 | > 75 | > 70 | > 75 | – | –
2 | Cc1cccc(C(=O)N=S(C)C)c1NC(=O)c1cc(Br)nn1-c1ncccc1Cl [I.3-7] | – | > 75 | > 70 | > 75 | > 50 | > 75 | – | > 75 | > 75 | –
3 | Cc1cc(Cl)cc(C(=O)N=S(C(C)C)C(C)C)c1NC(=O)c1cc(C(F)(F)F)nn1-c1ncccc1Cl [I.3-1] | – | – | – | – | – | – | – | – | – | over 75%

From patent publication US20170015649A1, “N-Thio-anthranilamid compounds and their use as pesticides” (BASF SE, priority 2005, published 2017)
